Assay results published in paper PMC9181126, “Design, Synthesis, Molecular Docking Analysis and Biological Evaluations of 4-[(Quinolin-4-yl)amino]benzamide Derivatives as Novel Anti-Influenza Virus Agents” (International Journal of Molecular Sciences, 2022).
Values joined by “and” are separate entries in the source; they are usually repeats but may differ in a detail not shown here. Identical values can stand only once.

Legend:
[1] = test system: influenza virus A/WSN/33 (H1N1); assay: Plaque inhibition assay in MDCK cells; assay type: cell-based; settings: MDCK, read-out: Plaque Inhibition Assay (A/WSN/33, H1N1) Inhibition Rate; for inhibition at 100 µM: concentration 100 µM; for inhibition at 12.5 µM: concentration 12.5 µM
[2] = test system: influenza virus A/WSN/33 (H1N1); assay: organism not typed; assay type: cell-based; settings: MDCK, 72 h; for EC50: read-out: Cytopathic Effect Assay (A/WSN/33, H1N1) EC50; for inhibition at 12.5 µM / inhibition at 25 µM / inhibition at 50 µM / inhibition at 100 µM: H1N1|WSN, read-out: Antiviral activity in CPE assay
in vitro [3] = assay type: cell-based, canine; settings: dog
Description: (§1) The 3-(4,5-dimethylthiazol-2-yl)-2,5-diphenyltetrazolium bromide (MTT) method was performed to assess the cytotoxicity of target compounds in MDCK cells and HEK293T cells. Firstly, MDCK cells or HEK293T cells were seeded into the 96-well plate. Then, the media containing test compounds replaced the growth media after 48 h. Incubate MDCK cells or HEK293T cells with test compounds for 72 h at 37 °C in a humidified 5% CO2 incubator. Later, MTT solution (5 mg/mL in PBS) was added into each well and plates were incubated for 4 h at 37 °C. Then, add a solubilization solution to lyse cells. Finally, absorbance was read at 620 nm using an ELISA plate reader (Tecan Sunrise) after 3 h of further incubation at 37 °C. We set the values obtained from the wells treated with only DMSO as 100% of viable cells.

MDCK cells = assay: in vitro; assay type: cell-based, canine; settings: dog, 72 h
Description: as §1

in vitro [4] = assay type: cell-based; settings: human
Description: as §1

HEK293T cells = assay: in vitro; assay type: cell-based; settings: human, 72 h
Description: as §1

PA-PB1 endonuclease = test system: PA-PB1 endonuclease; parameters: method as in supplement 1-7; settings: training and test set compounds collected from literature; ref supplement 1-7; read-out: IC50 value Experimental (PA-PB1 endonuclease inhibitors); cited from earlier work

Structure (SMILES)	EC50 [2] [µM]	melting point [°C]	CC50 at 72 h (in vitro [3]) [µM]	MDCK cells survival rate (MDCK cells; 12.5 µmol·L−1) [%]	MDCK cells survival rate (MDCK cells; 25 µmol·L−1) [%]	MDCK cells survival rate (MDCK cells; 50 µmol·L−1) [%]	MDCK cells survival rate (MDCK cells; 100 µmol·L−1) [%]	inhibition at 12.5 µM [2] [%]	inhibition at 25 µM [2] [%]	inhibition at 50 µM [2] [%]	inhibition at 100 µM [2] [%]	CC50 at 72 h (in vitro [4]) [µM]	HEK293T cells survival rate (HEK293T cells; 3.125 µmol·L−1) [%]	HEK293T cells survival rate (HEK293T cells; 6.25 µmol·L−1) [%]	HEK293T cells survival rate (HEK293T cells; 12.5 µmol·L−1) [%]	HEK293T cells survival rate (HEK293T cells; 25 µmol·L−1) [%]	HEK293T cells survival rate (HEK293T cells; 50 µmol·L−1) [%]	HEK293T cells survival rate (HEK293T cells; 100 µmol·L−1) [%]	IC50 (PA-PB1 endonuclease)	also measured
O=C(O)c1ccc(Nc2ccnc3cc(C(F)(F)F)ccc23)cc1 [4-{[7-(Trifluoromethyl)quinolin-4-yl]amino}benzoic acid]	22.9	323.7 to 324.9	–	–	–	–	–	–	–	–	–	–	–	–	–	–	–	–	–	inhibition at 50 µM ([1]; concentration 50 µM): 50%
CCCNC(=O)c1ccc(Nc2ccnc3cc(C(F)(F)F)ccc23)cc1 [Compound G03, N-Propyl-4-{[7-(trifluoromethyl)quinolin-4-yl]amino}benzamide]	10 ± 1.9	242.5 to 243.4	> 100	107.23±8.32	128.70±3.04	132.67±1.65	144.22±4.46	54.9 ± 4.62	56.7 ± 11.7	70.3 ± 9.33	78.7 ± 8.35	> 100	98.97±9.80	89.61±8.87	97.78±4.47	91.10±7.09	84.12±2.84	74.22±4.02	–	inhibition at 100 µM [1]: < 10%
CCN(CC)CCCNC(=O)c1ccc(Nc2ccnc3cc(C(F)(F)F)ccc23)cc1 [Compound G06, N-[3-(Diethylamino)propyl]-4-{[7-(trifluoromethyl)quinolin-4-yl]amino}benzamide]	> 100	216.5 to 219.3	> 100	95.22±3.96	96.67±0.91	84.01±5.28	79.75±2.72	16.7 ± 1.15	13.1 ± 0.69	12.8 ± 0.69	11.2 ± 0.23	> 100	107.15±2.76	90.35±0.85	96.59±4.26	85.50±2.49	85.25±2.63	76.47±9.94	–	inhibition at 12.5 µM [1]: < 10%
O=C(NCCCN1CCOCC1)c1ccc(Nc2ccnc3cc(C(F)(F)F)ccc23)cc1 [Compound G08, N-(3-Morpholinopropyl)-4-{[7-(trifluoromethyl)quinolin-4-yl]amino}benzamide]	> 100	207.3 to 209.1	> 100	95.86±1.24	76.43±4.79	75.20±0.25	78.41±2.97	44.3 ± 3.44	45.6 ± 9.4	31.1 ± 8.71	15.4 ± 0.23	> 100	100.86±3.39	97.00±3.10	95.72±3.30	95.56±2.29	98.07±1.80	112.13±1.41	–	inhibition at 25 µM ([1]; concentration 25 µM): 11.5%
O=C(NC1CCCCC1)c1ccc(Nc2ccnc3cc(C(F)(F)F)ccc23)cc1 [Compound G09, N-Cyclohexyl-4-{[7-(trifluoromethyl)quinolin-4-yl]amino}benzamide]	> 100	236.5 to 237.3	> 100	156.36±6.13	124.74±4.87	130.46±12.65	133.61±3.89	31.9 ± 0.69	22.9 ± 3.9	21.4 ± 0.92	23.2 ± 3.9	> 100	106.48±6.90	98.20±3.74	92.83±3.70	96.79±0.62	101.55±2.23	81.22±3.80	–	inhibition at 12.5 µM [1]: 46.9%
O=C(NC1CCC(O)CC1)c1ccc(Nc2ccnc3cc(C(F)(F)F)ccc23)cc1 (stereo not shown) [Compound G10, N-(4-Hydroxycyclohexyl)-4-{[7-(trifluoromethyl)quinolin-4-yl]amino}benzamide]	10.4 ± 0.22	324 to 325	> 100	84.64±7.10	109.11±15.21	127.95±8.15	110.17±2.79	48.9 ± 2.01	58 ± 1.69	66.2 ± 2.87	63.8 ± 5.18	> 100	108.01±12.84	104.56±4.92	98.12±8.96	98.50±8.84	99.09±8.41	109.24±7.99	–	inhibition at 100 µM [1]: 7.41%
O=C(c1ccc(Nc2ccnc3cc(C(F)(F)F)ccc23)cc1)N1CCN(c2cccc(C(F)(F)F)c2)CC1 [Compound G16, {4-[3-(Trifluoromethyl)phenyl]piperazin-1-yl}{4-{[7-(trifluoromethyl)quinolin-4-yl]amino}phenyl}methanone]	> 100	217 to 218.5	> 100	83.03±1.26	85.52±2.56	92.23±7.81	103.91±10.21	15.7 ± 1.33	36.8 ± 3.16	33.8 ± 2.71	45.7 ± 2.09	> 100	89.31±3.06	79.52±2.87	80.26±3.54	75.35±5.51	70.68±3.36	66.51±2.68	–	–
Cc1cc(-c2ccccc2)n2nc(C(=O)Nc3sc4c(c3C(N)=O)CCCCC4)nc2n1 [Compound H01]	–	–	–	–	–	–	–	–	–	–	–	–	–	–	–	–	–	–	1.1 µM	–
NC(=O)c1c(NC(=O)c2nc3nc(-c4ccccc4)cc(C(F)(F)F)n3n2)sc2c1CCCC2 [Compound H02, N-(3-carbamoyl-4,5,6,7-tetrahydrobenzo[b]thiophen-2-yl)-5-phenyl-7-(trifluoromethyl)-[1,2, 4]triazolo[1,5-a]pyrimidine-2-carboxamide]	–	–	–	–	–	–	–	–	–	–	–	–	–	–	–	–	–	–	7.5 µM and 6.2 µM	–
Cc1cc(-c2ccccc2)n2nc(C(=O)Nc3sc4c(c3C(N)=O)CCC4)nc2n1 [Compound H03]	–	–	–	–	–	–	–	–	–	–	–	–	–	–	–	–	–	–	6.2 µM and 7.5 µM	–
CCC(C)NC(=O)c1ccccc1NC(=O)c1cccc(S(=O)(=O)Nc2ccccc2)c1 (stereo not shown) [Compound H04]	–	–	–	–	–	–	–	–	–	–	–	–	–	–	–	–	–	–	9.2 µM	–
O=C1c2ccccc2C(=O)c2c1cc(Nc1ccccc1)c1nsnc21 [Compound H10]	–	–	–	–	–	–	–	–	–	–	–	–	–	–	–	–	–	–	9.5 µM	–
